Data as given in article PMC5391474, “Investigation of the Role of Protein Kinase D in Human Rhinovirus Replication” (Journal of Virology, 2017).

Legend:
Assay in all cases: biochemical
Parameters in all cases: in vitro kinase selectivity panel, protein and lipid kinases, single concentration, ATP at Km
Settings in all cases: ATP at Km
[1] = biological target: T1, PRK2(h) (Homo sapiens, UniProt Q16513)
T1 construct: gene PKN2
Experimental: (§1) CRT0066101 was described previously ([48]) and was purchased for this study from Tocris, with a purity of 99.9%. CRT0066101 (XX-209) and compound XX-050 were synthesized as previously described ([68]). CRT0066051 (Y-095) was also synthesized as previously described ([69]). […] CRT0066101 can also be obtained in larger quantities from Ximbio. Inhibitors were tested in in vitro PKD kinase assays and cellular assays on PANC1 cells as previously described ([48]). The selectivity of the three PKD inhibitors was determined against a panel of protein and lipid kinases by Eurofins and the MRC PPU International Centre for Kinase Profiling (http://www.kinase-screen.mrc.ac.uk), respectively. Each inhibitor was tested at a single concentration of 1 μM and at an ATP concentration equivalent to the Km for each kinase. Having shown that HRV infection appears to activate PKD, we went on to explore the influence of chemical inhibitors of PKD on HRV replication. The compound CRT0066101 is a specific and potent PKD inhibitor that has been used in studies exploring its potential as an anticancer target ([48], [51]). This inhibitor has a 50% inhibitory concentration (IC50) of 1 nM against purified PKD in biochemical assays and a 50% effective concentration (EC50) of 1 μM in a cell-based assay (Table 1). We pretreated HeLa cells with increasing concentrations of the drug for 1 h followed by infection with HRV16. Viral replication was subsequently measured at 6 hpi by quantitative real-time PCR (qRT-PCR) (Fig. 2A) and by Western blotting using an antibody against the viral nonstructural protein 2C (Fig. 2B). […] Furthermore, we tested two novel and structurally different PKD inhibitors (CRT0066051 and XX-050) (Table 1) and confirmed that they too inhibited HRV 2C expression although with different potencies (Fig. 2D). Kinase selectivity profiling of all three PKD inhibitors was performed against a panel of protein and lipid kinases at a drug concentration of 1 μM and at an ATP concentration equivalent to the Km of each kinase (see Table S1 in the supplemental material). […] Since PKD is known to be involved in regulating the architecture of the Golgi apparatus, we confirmed the pharmacodynamic effect of these inhibitors by demon

[2] = biological target: T2, TrkA(h) (Homo sapiens, UniProt P04629)
T2 construct: gene NTRK1
Experimental: as §1

[3] = biological target: T3, AMPKα1(h) (Homo sapiens, UniProt Q13131)
T3 construct: gene PRKAA1
Experimental: as §1

[4] = biological target: T4, ROCK-II(h) (Homo sapiens, UniProt O75116)
T4 construct: gene ROCK2
Experimental: as §1

[5] = biological target: Met(h) (Homo sapiens, UniProt P08581)
Experimental: as §1

[6] = biological target: T5, Yes(h) (Homo sapiens, UniProt P07947)
T5 construct: gene YES1
Experimental: as §1

[7] = biological target: PIK3CB (Homo sapiens, UniProt P42338)
Experimental: as §1

[8] = biological target: T6, Rsk1(h) (Homo sapiens, UniProt Q15418)
T6 construct: gene RPS6KA1
Experimental: as §1

[9] = biological target: T7, PKCε(h) (Homo sapiens, UniProt Q02156)
T7 construct: gene PRKCE
Experimental: as §1

[10] = biological target: T8, PKCβI(h) (Homo sapiens, UniProt P05771)
T8 construct: gene PRKCB; isoform beta I
Experimental: as §1

[11] = biological target: EGFR(T790M,L858R)(h) (Homo sapiens, UniProt P00533, L858R/T790M)
Experimental: as §1

[12] = biological target: T9, MAPKAP-K2(h) (Homo sapiens, UniProt P49137)
T9 construct: gene MAPKAPK2
Experimental: as §1

[13] = biological target: DAPK1(h) (Homo sapiens, UniProt P53355)
Experimental: as §1

[14] = biological target: T10, PKCβII(h) (Homo sapiens, UniProt P05771)
T10 construct: gene PRKCB; isoform beta II
Experimental: as §1

[15] = biological target: T11, MEK1(h) (Homo sapiens, UniProt Q02750)
T11 construct: gene MAP2K1
Experimental: as §1

[16] = biological target: T12, CK1δ(h) (Homo sapiens, UniProt P48730)
T12 construct: gene CSNK1D
Experimental: as §1

[17] = biological target: SPHK2 (Homo sapiens, UniProt Q9NRA0)
Experimental: as §1

T4 sequence (O75116 whole entry): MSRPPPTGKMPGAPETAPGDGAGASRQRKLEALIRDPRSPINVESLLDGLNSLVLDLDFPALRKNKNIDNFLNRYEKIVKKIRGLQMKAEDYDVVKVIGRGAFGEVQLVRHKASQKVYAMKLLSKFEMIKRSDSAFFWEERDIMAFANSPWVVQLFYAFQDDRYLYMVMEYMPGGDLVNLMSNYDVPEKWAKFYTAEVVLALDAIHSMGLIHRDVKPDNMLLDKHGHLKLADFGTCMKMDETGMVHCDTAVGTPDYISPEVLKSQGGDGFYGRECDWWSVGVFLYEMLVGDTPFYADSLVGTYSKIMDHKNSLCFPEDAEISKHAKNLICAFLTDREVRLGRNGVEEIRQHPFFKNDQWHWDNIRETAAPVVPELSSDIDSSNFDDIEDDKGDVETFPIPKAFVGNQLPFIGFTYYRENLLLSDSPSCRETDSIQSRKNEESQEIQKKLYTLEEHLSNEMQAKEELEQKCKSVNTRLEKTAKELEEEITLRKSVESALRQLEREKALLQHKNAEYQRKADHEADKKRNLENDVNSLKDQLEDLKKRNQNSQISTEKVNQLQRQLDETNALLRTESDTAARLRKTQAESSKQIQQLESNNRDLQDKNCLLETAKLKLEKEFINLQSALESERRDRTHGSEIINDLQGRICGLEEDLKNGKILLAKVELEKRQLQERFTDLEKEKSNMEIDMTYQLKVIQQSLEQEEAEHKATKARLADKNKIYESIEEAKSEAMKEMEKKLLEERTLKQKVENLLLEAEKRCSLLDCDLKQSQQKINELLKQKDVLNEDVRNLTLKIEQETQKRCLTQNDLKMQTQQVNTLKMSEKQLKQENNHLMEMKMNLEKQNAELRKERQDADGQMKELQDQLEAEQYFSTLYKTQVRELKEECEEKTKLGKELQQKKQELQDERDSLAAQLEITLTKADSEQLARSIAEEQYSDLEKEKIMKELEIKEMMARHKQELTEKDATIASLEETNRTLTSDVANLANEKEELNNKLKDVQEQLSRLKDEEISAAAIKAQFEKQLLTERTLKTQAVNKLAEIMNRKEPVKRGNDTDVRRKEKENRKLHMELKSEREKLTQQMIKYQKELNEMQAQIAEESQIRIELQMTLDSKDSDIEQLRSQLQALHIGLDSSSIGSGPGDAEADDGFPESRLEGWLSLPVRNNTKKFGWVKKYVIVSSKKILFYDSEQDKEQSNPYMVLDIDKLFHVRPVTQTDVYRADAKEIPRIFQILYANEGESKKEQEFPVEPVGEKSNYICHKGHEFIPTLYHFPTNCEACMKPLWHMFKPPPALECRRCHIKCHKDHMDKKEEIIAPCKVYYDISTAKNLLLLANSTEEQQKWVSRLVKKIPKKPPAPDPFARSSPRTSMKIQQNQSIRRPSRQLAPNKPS
T3 sequence (Q13131 whole entry): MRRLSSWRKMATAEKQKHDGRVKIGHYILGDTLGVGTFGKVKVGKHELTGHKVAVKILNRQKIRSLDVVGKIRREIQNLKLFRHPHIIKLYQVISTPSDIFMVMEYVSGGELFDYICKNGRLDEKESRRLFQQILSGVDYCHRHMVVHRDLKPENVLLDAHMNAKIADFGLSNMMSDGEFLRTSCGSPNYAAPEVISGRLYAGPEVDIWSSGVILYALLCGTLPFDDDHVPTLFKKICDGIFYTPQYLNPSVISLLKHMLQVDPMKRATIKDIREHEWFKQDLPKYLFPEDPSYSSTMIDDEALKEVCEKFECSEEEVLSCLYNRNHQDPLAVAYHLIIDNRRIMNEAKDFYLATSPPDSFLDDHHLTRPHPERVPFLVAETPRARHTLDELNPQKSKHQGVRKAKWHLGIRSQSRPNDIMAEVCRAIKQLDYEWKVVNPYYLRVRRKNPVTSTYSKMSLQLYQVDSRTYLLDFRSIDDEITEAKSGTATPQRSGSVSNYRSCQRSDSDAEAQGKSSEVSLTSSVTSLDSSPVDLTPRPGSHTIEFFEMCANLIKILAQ
T3 sequence (P54619 whole entry partner): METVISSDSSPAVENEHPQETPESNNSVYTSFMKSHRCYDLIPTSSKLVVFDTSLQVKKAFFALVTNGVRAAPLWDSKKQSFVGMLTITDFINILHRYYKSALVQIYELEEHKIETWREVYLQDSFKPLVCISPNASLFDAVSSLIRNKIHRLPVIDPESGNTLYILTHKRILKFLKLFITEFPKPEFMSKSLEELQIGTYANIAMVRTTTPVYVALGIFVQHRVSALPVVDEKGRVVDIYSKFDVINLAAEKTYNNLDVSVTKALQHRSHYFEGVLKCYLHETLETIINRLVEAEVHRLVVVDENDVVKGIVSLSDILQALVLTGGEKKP
T3 sequence (Q9Y478 whole entry partner): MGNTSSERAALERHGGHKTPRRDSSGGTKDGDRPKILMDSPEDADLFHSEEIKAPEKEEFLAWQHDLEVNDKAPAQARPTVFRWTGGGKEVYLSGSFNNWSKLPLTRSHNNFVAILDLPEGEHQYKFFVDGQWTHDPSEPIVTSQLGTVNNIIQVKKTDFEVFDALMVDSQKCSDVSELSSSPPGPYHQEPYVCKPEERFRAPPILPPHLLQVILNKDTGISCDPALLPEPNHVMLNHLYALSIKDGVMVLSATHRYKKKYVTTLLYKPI
Sequence of PIK3CB (P42338 whole entry): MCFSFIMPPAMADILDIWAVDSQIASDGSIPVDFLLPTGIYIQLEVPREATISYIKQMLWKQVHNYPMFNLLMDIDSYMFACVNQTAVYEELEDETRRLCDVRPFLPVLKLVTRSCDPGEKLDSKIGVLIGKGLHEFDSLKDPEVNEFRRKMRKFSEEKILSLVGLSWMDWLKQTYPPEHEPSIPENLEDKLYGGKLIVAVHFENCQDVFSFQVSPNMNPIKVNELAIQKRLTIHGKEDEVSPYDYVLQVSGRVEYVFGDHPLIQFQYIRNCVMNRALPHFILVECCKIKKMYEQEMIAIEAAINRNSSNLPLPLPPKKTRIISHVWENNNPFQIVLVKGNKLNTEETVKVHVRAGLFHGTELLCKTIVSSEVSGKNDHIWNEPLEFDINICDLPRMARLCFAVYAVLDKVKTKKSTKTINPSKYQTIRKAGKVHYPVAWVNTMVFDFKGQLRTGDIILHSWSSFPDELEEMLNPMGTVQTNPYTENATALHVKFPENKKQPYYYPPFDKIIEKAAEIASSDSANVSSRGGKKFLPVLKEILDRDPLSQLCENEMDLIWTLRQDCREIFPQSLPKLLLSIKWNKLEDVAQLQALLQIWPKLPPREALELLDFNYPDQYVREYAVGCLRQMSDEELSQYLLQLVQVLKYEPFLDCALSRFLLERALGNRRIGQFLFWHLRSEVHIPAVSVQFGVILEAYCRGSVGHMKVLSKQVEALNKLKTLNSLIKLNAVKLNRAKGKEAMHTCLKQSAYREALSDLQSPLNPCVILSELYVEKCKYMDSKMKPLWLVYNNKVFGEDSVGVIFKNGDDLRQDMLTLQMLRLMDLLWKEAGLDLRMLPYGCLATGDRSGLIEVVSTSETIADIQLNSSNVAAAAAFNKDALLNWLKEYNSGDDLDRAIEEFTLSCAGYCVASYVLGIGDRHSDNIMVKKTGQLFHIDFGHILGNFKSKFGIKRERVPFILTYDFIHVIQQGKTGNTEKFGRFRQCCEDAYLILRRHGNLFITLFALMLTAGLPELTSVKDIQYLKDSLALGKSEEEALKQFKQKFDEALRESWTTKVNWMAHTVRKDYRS
T5 sequence (P07947 whole entry): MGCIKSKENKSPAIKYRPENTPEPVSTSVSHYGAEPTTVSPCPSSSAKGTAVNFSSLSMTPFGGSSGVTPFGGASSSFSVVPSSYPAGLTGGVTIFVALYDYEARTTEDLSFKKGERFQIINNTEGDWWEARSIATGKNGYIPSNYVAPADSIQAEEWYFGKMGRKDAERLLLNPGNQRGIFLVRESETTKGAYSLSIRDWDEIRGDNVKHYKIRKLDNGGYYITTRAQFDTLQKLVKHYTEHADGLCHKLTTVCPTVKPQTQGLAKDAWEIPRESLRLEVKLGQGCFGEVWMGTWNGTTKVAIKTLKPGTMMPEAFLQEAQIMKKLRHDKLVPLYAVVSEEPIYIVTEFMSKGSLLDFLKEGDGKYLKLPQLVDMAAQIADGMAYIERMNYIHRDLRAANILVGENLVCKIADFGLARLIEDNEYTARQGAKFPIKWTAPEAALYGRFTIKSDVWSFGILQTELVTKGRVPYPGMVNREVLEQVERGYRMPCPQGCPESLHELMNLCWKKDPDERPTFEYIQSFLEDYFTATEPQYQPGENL
T12 sequence (P48730 whole entry): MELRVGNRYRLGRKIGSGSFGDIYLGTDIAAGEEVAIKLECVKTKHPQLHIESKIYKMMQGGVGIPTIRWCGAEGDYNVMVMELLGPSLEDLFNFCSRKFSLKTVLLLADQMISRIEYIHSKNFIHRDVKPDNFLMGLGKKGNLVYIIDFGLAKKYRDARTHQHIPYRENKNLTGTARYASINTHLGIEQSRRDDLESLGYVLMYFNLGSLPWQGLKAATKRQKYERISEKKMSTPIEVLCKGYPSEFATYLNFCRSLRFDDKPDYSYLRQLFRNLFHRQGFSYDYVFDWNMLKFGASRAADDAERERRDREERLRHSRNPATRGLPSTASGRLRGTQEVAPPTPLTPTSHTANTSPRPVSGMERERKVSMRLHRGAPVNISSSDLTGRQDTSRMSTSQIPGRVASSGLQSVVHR
T9 sequence (P49137 whole entry): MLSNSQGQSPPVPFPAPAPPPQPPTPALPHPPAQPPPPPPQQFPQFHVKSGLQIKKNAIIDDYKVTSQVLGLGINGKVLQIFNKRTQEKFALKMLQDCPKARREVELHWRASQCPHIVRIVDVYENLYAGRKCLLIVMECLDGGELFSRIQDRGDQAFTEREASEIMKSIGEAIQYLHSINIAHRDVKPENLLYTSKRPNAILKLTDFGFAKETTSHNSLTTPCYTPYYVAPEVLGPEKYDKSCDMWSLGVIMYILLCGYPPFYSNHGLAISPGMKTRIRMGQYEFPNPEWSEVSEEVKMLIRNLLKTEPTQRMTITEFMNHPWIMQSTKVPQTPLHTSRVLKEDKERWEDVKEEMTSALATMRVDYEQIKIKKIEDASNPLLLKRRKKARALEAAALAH

## CC[C@@H](N)CNc1ccnc(-c2cc(-c3cnn(C)c3)ccc2O)n1 [CRT0066101]
[1]
  inhibition at 1 µM: 77%
[2]
  inhibition at 1 µM: 23%
[3]
  inhibition at 1 µM: 17%
[4]
  inhibition at 1 µM: 28%
[5]
  inhibition at 1 µM: 12%
[6]
  inhibition at 1 µM: 40%
[7]
  inhibition at 1 µM: -9%
[8]
  inhibition at 1 µM: 48%
[9]
  inhibition at 1 µM: 12%
[10]
  inhibition at 1 µM: 11%
[11]
  inhibition at 1 µM: -3%
[12]
  inhibition at 1 µM: -9%
[13]
  inhibition at 1 µM: -8%
[14]
  inhibition at 1 µM: -1%
[15]
  inhibition at 1 µM: 9%
[16]
  inhibition at 1 µM: 13%
[17]
  inhibition at 1 µM: 20%
